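Five compound concentrations were applied to cells in 96-well plates for 48 hours; endpoints were derived by simple linear interpolation of the resulting dose-response curve. The concentration for full growth arrest is given as TGI.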
Legend:
Test in all cases: growth of human tumour cells (NCI), 48 h
MDA-MB-435 = tested on: MDA-MB-435
MOLT-4 leukemia = tested on: MOLT-4 leukemia
PC-3 prostate = tested on: PC-3 prostate
ACHN renal = tested on: ACHN renal
HCT-15 colon = tested on: HCT-15 colon
RXF 393 renal = tested on: RXF 393 renal
HOP-92 NSCLC = tested on: HOP-92 NSCLC
LOX IMVI melanoma = tested on: LOX IMVI melanoma
NCI-H23 lung = tested on: NCI-H23 lung
T-47D breast = tested on: T-47D breast
HS 578T breast = tested on: HS 578T breast
SW-620 colon = tested on: SW-620 colon
HCC-2998 colon = tested on: HCC-2998 colon
OVCAR-4 ovarian = tested on: OVCAR-4 ovarian
MALME-3M melanoma = tested on: MALME-3M melanoma
786-0 renal = tested on: 786-0 renal
NCI-H522 lung = tested on: NCI-H522 lung
OVCAR-5 ovarian = tested on: OVCAR-5 ovarian
EKVX NSCLC = tested on: EKVX NSCLC
CCRF-CEM leukemia = tested on: CCRF-CEM leukemia
COLO 205 colon = tested on: COLO 205 colon
NCI-H226 lung = tested on: NCI-H226 lung
UACC-257 melanoma = tested on: UACC-257 melanoma
BT-549 breast = tested on: BT-549 breast
SF-539 CNS = tested on: SF-539 CNS
HT29 colon = tested on: HT29 colon
SF-295 CNS = tested on: SF-295 CNS
SF-268 CNS = tested on: SF-268 CNS
A549 NSCLC = tested on: A549 NSCLC
SK-OV-3 ovarian = tested on: SK-OV-3 ovarian
SK-MEL-28 melanoma = tested on: SK-MEL-28 melanoma
UACC-62 melanoma = tested on: UACC-62 melanoma
OVCAR-8 ovarian = tested on: OVCAR-8 ovarian
MCF7 breast = tested on: MCF7 breast
MDA-N = tested on: MDA-N
SNB-19 CNS = tested on: SNB-19 CNS
SN12C renal = tested on: SN12C renal
M14 melanoma = tested on: M14 melanoma
NCI/ADR-RES ovarian = tested on: NCI/ADR-RES ovarian
NCI-H460 lung = tested on: NCI-H460 lung
OVCAR-3 ovarian = tested on: OVCAR-3 ovarian
K-562 leukemia = tested on: K-562 leukemia
U251 CNS = tested on: U251 CNS
MDA-MB-231 breast = tested on: MDA-MB-231 breast
SK-MEL-2 melanoma = tested on: SK-MEL-2 melanoma
RPMI-8226 leukemia = tested on: RPMI-8226 leukemia
HL-60(TB) leukemia = tested on: HL-60(TB) leukemia
IGROV1 ovarian = tested on: IGROV1 ovarian
SK-MEL-5 melanoma = tested on: SK-MEL-5 melanoma
KM12 colon = tested on: KM12 colon
HOP-62 NSCLC = tested on: HOP-62 NSCLC
HCT-116 colon = tested on: HCT-116 colon
CAKI-1 renal = tested on: CAKI-1 renal
SR leukemia = tested on: SR leukemia
UO-31 renal = tested on: UO-31 renal
TK-10 renal = tested on: TK-10 renal
DU-145 prostate = tested on: DU-145 prostate
A498 renal = tested on: A498 renal
SNB-75 CNS = tested on: SNB-75 CNS

Measured: TGI

COc1ccc(C2SC(N)=Nc3c2c(C)nn3C(=O)c2ccccc2O)cc1 (stereo not given)
6.99 µM: RPMI-8226 leukemia
5.21 µM: HL-60(TB) leukemia
7.48 µM: OVCAR-3 ovarian
0.628 µM: SF-539 CNS
9.79 µM: MDA-MB-231 breast
3.85 µM: K-562 leukemia
not listed: SR leukemia | UO-31 renal | TK-10 renal | DU-145 prostate | A498 renal | SNB-75 CNS
> 10 µM: all other assays above

CC1=CC(O)(c2ccccc2)C(N2CCOCC2)N1O (stereo not given)
not listed: RXF 393 renal | HOP-92 NSCLC | UACC-62 melanoma | HL-60(TB) leukemia | DU-145 prostate | A498 renal | SNB-75 CNS
> 100 µM: all other assays above

CNC(=O)Oc1ccc(C(=S)Nc2ccc(Br)cc2)cc1
27 µM: LOX IMVI melanoma
31.2 µM: NCI-H522 lung
47.2 µM: SF-539 CNS
35.9 µM: KM12 colon
38.3 µM: NCI-H23 lung
98.8 µM: MALME-3M melanoma
18.7 µM: IGROV1 ovarian
24.8 µM: HL-60(TB) leukemia
83.3 µM: PC-3 prostate
77.1 µM: OVCAR-4 ovarian
30.1 µM: UACC-62 melanoma
40.4 µM: MOLT-4 leukemia
43.1 µM: HCT-15 colon
77.4 µM: OVCAR-5 ovarian
44.2 µM: BT-549 breast
22.4 µM: OVCAR-8 ovarian
44.8 µM: HT29 colon
46.1 µM: SR leukemia | HCT-116 colon
63.9 µM: MDA-MB-435
51.3 µM: CAKI-1 renal
60 µM: UO-31 renal
18.3 µM: CCRF-CEM leukemia
53.3 µM: A498 renal
83.4 µM: MCF7 breast
41.4 µM: HCC-2998 colon
49.4 µM: OVCAR-3 ovarian
76.1 µM: K-562 leukemia
74.8 µM: U251 CNS
81 µM: DU-145 prostate
34.9 µM: SK-MEL-5 melanoma
54.7 µM: NCI/ADR-RES ovarian
60.5 µM: 786-0 renal
39.2 µM: COLO 205 colon
46 µM: SK-MEL-2 melanoma
> 100 µM: ACHN renal | HS 578T breast | SW-620 colon | UACC-257 melanoma | SF-268 CNS | A549 NSCLC | SK-OV-3 ovarian | SNB-19 CNS | RPMI-8226 leukemia | HOP-62 NSCLC
42 µM: EKVX NSCLC
80.2 µM: T-47D breast
46.4 µM: M14 melanoma
57.3 µM: MDA-N
62.7 µM: SK-MEL-28 melanoma

Cn1c(=O)c2ccccc2c2ccccc21
89.8 µM: CAKI-1 renal
94.1 µM: SK-OV-3 ovarian
93.8 µM: A498 renal
95.7 µM: SK-MEL-5 melanoma
63.1 µM: EKVX NSCLC
not listed: MOLT-4 leukemia | OVCAR-5 ovarian | K-562 leukemia | HL-60(TB) leukemia | IGROV1 ovarian | SR leukemia
> 100 µM: all other assays above

CCSc1cc(C(=O)OC)c2n(c1=O)CCCC2
not listed: HOP-92 NSCLC | HCC-2998 colon | NCI-H460 lung | OVCAR-3 ovarian | K-562 leukemia | RPMI-8226 leukemia | SR leukemia
> 100 µM: all other assays above

Source: PubChem BioAssay (NCI)
